Results published in patent US20160354429A1, “Use of Melanocortins to Treat Insulin Sensitivity” (Ipsen Pharma S.A.S., priority 2007, published 2016).
pEC50, pKi: −log10 of the molar value. Bridge positions count the residues as written; N and C are the ends. Square brackets hold non-standard residues; d marks the D form. Peptide text beside a SMILES is read from it. GABA = NCCCC(=O)O

Legend:
[1] = target: T1, hMC5-R (Homo sapiens, UniProt P33032); assay: cyclic AMP bioassay, hMC5-R; format: cell-based
T1 construct: expressed in transfected cells
T1 sequence (P33032 whole entry): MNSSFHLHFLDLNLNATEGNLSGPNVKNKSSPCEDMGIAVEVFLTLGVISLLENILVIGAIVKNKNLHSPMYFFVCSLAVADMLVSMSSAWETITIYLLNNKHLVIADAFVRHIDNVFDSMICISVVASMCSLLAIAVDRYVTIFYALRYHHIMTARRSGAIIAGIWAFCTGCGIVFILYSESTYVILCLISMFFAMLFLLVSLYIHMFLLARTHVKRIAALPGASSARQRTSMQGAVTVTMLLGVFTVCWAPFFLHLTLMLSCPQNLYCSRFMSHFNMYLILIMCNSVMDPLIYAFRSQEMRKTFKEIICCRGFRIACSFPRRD
Method: Intracellular cyclic AMP (cAMP) levels were determined by an electrochemiluminescence (ECL) assay (Meso Scale Discovery®, Gaithersburg, Md.; referred to hereinafter as MSD). […] Transgenic CHO-K1 cells stably expressing hMC receptor subtypes 1, 3, 4 or 5 were dispensed at a density of approximately 7,000 cells/well in 384-well Multi-Array® plates (MSD) containing integrated carbon electrodes and coated with anti-cAMP antibody. Increasing concentrations of the test compounds were added and the cells were incubated for approximately 40 minutes at approximately 37° C. […] At the end of the second incubation period read buffer (Tris-buffered solution containing an ECL co-reactant and Triton X-100 at ph 7.8) was added and the cAMP levels in the cell lysates were immediately determined by ECL detection with a Sector Imager 6000 Reader® (MSD). Data were analyzed using a computer-assisted non-linear regression analysis (XL fit; IDBS) and reported as either an EC50 value or a Kb value.

[2] = target: T2, hMC1-R (Homo sapiens, UniProt Q01726); assay: Radioligand binding assay, hMC1-R; settings: competition with [125I]-NDP-α-MSH, CHO-K1 cell membranes
T2 construct: expressed in transfected cells
T2 sequence (Q01726 whole entry): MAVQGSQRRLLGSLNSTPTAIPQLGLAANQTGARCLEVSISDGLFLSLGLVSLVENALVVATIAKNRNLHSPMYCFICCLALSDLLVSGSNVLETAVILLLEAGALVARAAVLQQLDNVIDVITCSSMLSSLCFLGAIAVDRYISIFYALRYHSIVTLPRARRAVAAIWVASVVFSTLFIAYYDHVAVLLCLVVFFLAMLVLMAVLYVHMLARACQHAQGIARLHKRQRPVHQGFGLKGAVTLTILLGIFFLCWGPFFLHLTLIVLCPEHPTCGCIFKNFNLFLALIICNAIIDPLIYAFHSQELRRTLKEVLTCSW

[3] = target: T1, hMC5-R; assay: Radioligand binding assay, hMC5-R; settings: competition with [125I]-NDP-α-MSH, CHO-K1 cell membranes
Method: Cellular membranes used for the in vitro receptor binding assays were obtained from transgenic CHO-K1 cells stably expressing hMC-R receptor subtypes 1, 3, 4 or 5. […] The pellets were resuspended in the same buffer and centrifuged at 50,000 g for 10 minutes at approximately 4° C. The washed pellets containing the cellular membranes were stored at approximately −80° C.
Filters were washed three times with 50 mM Tris-HCl at pH 7.4 at a temperature of approximately 0-4° C. and then assayed for radioactivity using a Packard Topcount® scintillation counter. Binding data were analyzed by computer-assisted non-linear regression analysis (XL fit; IDBS).

[4] = target: T3, hMC3-R (Homo sapiens, UniProt P41968); assay: Radioligand binding assay, hMC3-R; settings: competition with [125I]-NDP-α-MSH, CHO-K1 cell membranes
T3 construct: expressed in transfected cells
T3 sequence (P41968 whole entry): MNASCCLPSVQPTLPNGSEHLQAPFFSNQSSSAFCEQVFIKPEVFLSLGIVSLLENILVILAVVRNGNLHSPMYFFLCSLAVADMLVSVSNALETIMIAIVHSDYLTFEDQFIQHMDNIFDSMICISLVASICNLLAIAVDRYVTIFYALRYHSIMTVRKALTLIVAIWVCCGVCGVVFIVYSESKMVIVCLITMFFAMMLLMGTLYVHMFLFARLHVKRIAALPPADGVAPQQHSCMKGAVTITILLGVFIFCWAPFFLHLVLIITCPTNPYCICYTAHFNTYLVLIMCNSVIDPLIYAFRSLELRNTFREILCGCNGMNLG

[5] = target: T4, hMC4-R (Homo sapiens, UniProt P32245); assay: Radioligand binding assay, hMC4-R; settings: competition with [125I]-NDP-α-MSH, CHO-K1 cell membranes
T4 construct: expressed in transfected cells
T4 sequence (P32245 whole entry): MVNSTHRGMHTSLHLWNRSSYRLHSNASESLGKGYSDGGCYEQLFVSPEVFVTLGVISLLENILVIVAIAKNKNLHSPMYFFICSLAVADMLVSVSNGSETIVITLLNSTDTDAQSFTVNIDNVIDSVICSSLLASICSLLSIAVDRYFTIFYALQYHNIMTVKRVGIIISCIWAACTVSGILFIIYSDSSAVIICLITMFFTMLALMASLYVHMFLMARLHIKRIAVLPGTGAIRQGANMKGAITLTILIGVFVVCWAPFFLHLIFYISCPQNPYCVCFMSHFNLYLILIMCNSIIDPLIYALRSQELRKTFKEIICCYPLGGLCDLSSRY

pKi [2]	pKi [3]	pKi [4]	pKi [5]	SMILES	pEC50 [1]
				CC(=O)N[C@@H](CCCNC(=N)N)C(=O)N[C@H]1CSSC(C)(C)[C@@H](C(N)=O)NC(=O)[C@H](Cc2c[nH]c3ccccc23)NC(=O)[C@H](CCCNC(=N)N)NC(=O)[C@@H](Cc2ccccc2)NC(=O)[C@H](Cc2c[nH]cn2)NC(=O)[C@@H](C)NC1=O [Ac-Arg-c(Cys-D-Ala-His-D-Phe-Arg-Trp-Pen)-NH2]	≤ 5.00
9.00				CCCC[C@H](NC(C)=O)C(=O)N[C@H]1CSSC[C@@H](C(N)=O)NC(=O)CCNC(=O)[C@H](Cc2c[nH]c3ccccc23)NC(=O)[C@H](CCCNC(=N)N)NC(=O)[C@@H](Cc2ccccc2)NC(=O)[C@H](Cc2c[nH]cn2)NC(=O)[C@@H](C)NC1=O [Ac-Nle-c(Cys-D-Ala-His-D-Phe-Arg-Trp-β-Ala-Cys)-NH2]	
9.60	9.15	7.73	8.67	CC(=O)N[C@@H](Cc1ccccc1)C(=O)N[C@H]1CSSC[C@@H](C(N)=O)NC(=O)CCCNC(=O)[C@H](Cc2c[nH]c3ccccc23)NC(=O)[C@H](CCCNC(=N)N)NC(=O)[C@@H](Cc2ccccc2)NC(=O)[C@H](Cc2c[nH]cn2)NC1=O [Ac-Phe-c(Cys-His-D-Phe-Arg-Trp-Gaba-Cys)-NH2] (Ac-FCH[dF]RW[GABA]C-NH2; disulfide 2-8)	
